Test results as given in publication PMC7531004, “Discovery of gramicidin A analogues with altered activities by multidimensional screening of a one-bead-one-compound library” (Nature Communications, 2020).
Where a SMILES comes first, the peptide text is derived from it. [ ]: non-standard residue; d: D form. The star is where a group is joined. NHCH2CH2OH = OCCN*; For = O=C*

Legend:
[1] = H+/Na+ transport assay of bead-derived peptides (one-point); type: biochemical; set-up: key: relative activity; mean of two control wells = 1.00; conditions: bead-derived peptide solution, EYPC/EYPG LUVs;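 note: relative to parent gramicidin A activity set to 1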
Outline: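 Pyranine (1.0 mM)-loaded LUVs containing egg yolk phosphatidylglycerol were prepared by film hydration, sonication and extrusion, then mixed with diluted bead-derived peptide in 96-well format and vortexed 30 min at room temperature. Fluorescence was normalized between untreated LUVs (0%) and Triton X-100 lysis (100%).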

[2] = test system: P388 mouse leukemia cells; conditions: 92 h
Outline: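 First, library peptide stocks are diluted 250-fold in RPMI1640 with 10% heat-inactivated FBS. Next, they are mixed with P388 cells to give 1 × 10^4 cells/mL and incubated 92 h at 37 °C, 5% CO2. Finally, viability (%) is scored by WST-1 absorbance at 415 nm.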

[3] = test system: Streptococcus pyogenes SSI-9; test: Antibacterial activity assay of bead-derived peptides (three concentrations); type: cell-based; set-up: key: +++: inhibition by the 640-fold diluted peptide solution; ++: inhibition by the 160-fold diluted solution; +: inhibition by the 40-fold diluted solution; -: no inhibition; conditions: S. pyogenes, bead-derived peptide solution, three concentrations
Outline: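 Bead-derived library peptide stocks in DMSO were tested undiluted and after 4- and 16-fold DMSO dilution against S. pyogenes SSI-9 (2 × 10^5 CFU/well) in cation-adjusted Mueller Hinton Broth with 5% laked horse blood. After 18 h at 37 °C, wells were scored for precipitation of grown cells.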

| SMILES | H+/Na+ transport activity normalized against the value of 1 (1.00) [1] | cell viability/% [2] | antibacterial activity [3] |
| --- | --- | --- | --- |
| CC(C)C[C@@H](NC(=O)[C@H](C)NC(=O)[C@H](NC(=O)[C@H](C)NC(=O)CNC(=O)[C@@H](NC=O)C(C)C)C(C)C)C(=O)N[C@H](C(=O)N[C@@H](C(=O)N[C@@H](Cc1c[nH]c2ccccc12)C(=O)N[C@@H](C(=O)N[C@@H](Cc1c[nH]c2ccccc12)C(=O)N[C@@H](C(=O)N[C@@H](Cc1c[nH]c2ccccc12)C(=O)N[C@H](CC(C)C)C(=O)N[C@@H](Cc1c[nH]c2ccccc12)C(=O)NCCO)C(C)C)C(C)C)[C@H](C)O)C(C)C [compound 11143] (For-VGA[dV]A[dL]V[dT]W[dV]W[dV]W[dL]W-NHCH2CH2OH) | 1.19 | 63.4% | - |
| CC(C)C[C@@H](NC(=O)[C@H](Cc1c[nH]c2ccccc12)NC(=O)[C@@H](CC(C)C)NC(=O)[C@H](Cc1c[nH]c2ccccc12)NC(=O)[C@H](NC(=O)[C@H](Cc1c[nH]c2ccccc12)NC(=O)[C@@H](CC(C)C)NC(=O)[C@@H](NC(=O)[C@H](NC(=O)[C@H](C)NC(=O)[C@H](NC(=O)[C@H](C)NC(=O)CNC(=O)[C@@H](NC=O)C(C)C)C(C)C)C(C)C)C(C)C)C(C)C)C(=O)N[C@@H](Cc1c[nH]c2ccccc12)C(=O)NCCO [compound 11146] (For-VGA[dV]A[dV]V[dL]W[dV]W[dL]W[dL]W-NHCH2CH2OH) | 1.08 | 100.0% | + |
| CC(C)C[C@@H](NC(=O)[C@H](C)NC(=O)CNC(=O)[C@@H](NC=O)C(C)C)C(=O)N[C@@H](C)C(=O)N[C@H](CC(C)C)C(=O)N[C@H](C(=O)N[C@H](CC(C)C)C(=O)N[C@@H](Cc1c[nH]c2ccccc12)C(=O)N[C@@H](C(=O)N[C@@H](Cc1c[nH]c2ccccc12)C(=O)N[C@H](CC(C)C)C(=O)N[C@@H](Cc1c[nH]c2ccccc12)C(=O)N[C@H](CC(C)C)C(=O)N[C@@H](Cc1c[nH]c2ccccc12)C(=O)NCCO)C(C)C)C(C)C [compound 11198] (For-VGA[dL]A[dL]V[dL]W[dV]W[dL]W[dL]W-NHCH2CH2OH) | 1.08 | 3.2% | - |
| CC(C)C[C@@H](NC(=O)[C@H](Cc1c[nH]c2ccccc12)NC(=O)[C@H](NC(=O)[C@H](Cc1c[nH]c2ccccc12)NC(=O)[C@@H](CC(C)C)NC(=O)[C@H](Cc1c[nH]c2ccccc12)NC(=O)[C@H](NC(=O)[C@@H](NC(=O)[C@H](NC(=O)[C@H](C)NC(=O)[C@H](NC(=O)[C@H](C)NC(=O)CNC(=O)[C@@H](NC=O)C(C)C)[C@H](C)O)C(C)C)C(C)C)C(C)C)C(C)C)C(=O)N[C@@H](Cc1c[nH]c2ccccc12)C(=O)NCCO [compound 11199] (For-VGA[dT]A[dV]V[dV]W[dL]W[dV]W[dL]W-NHCH2CH2OH) | 1.00 | 65.2% | - |
| CC(C)C[C@@H](NC(=O)[C@H](C)NC(=O)CNC(=O)[C@@H](NC=O)C(C)C)C(=O)N[C@@H](C)C(=O)N[C@H](CC(C)C)C(=O)N[C@H](C(=O)N[C@H](CC(C)C)C(=O)N[C@@H](Cc1c[nH]c2ccccc12)C(=O)N[C@H](CC(C)C)C(=O)N[C@@H](Cc1c[nH]c2ccccc12)C(=O)N[C@@H](C(=O)N[C@@H](Cc1c[nH]c2ccccc12)C(=O)N[C@@H](C(=O)N[C@@H](Cc1c[nH]c2ccccc12)C(=O)NCCO)C(C)C)C(C)C)C(C)C [compound 11214] (For-VGA[dL]A[dL]V[dL]W[dL]W[dV]W[dV]W-NHCH2CH2OH) | 1.02 | 2.6% | - |
| CNC(=O)C[C@@H](NC(=O)[C@@H](NC(=O)[C@@H](CC(C)C)NC(=O)[C@H](C)NC(=O)[C@H](NC(=O)[C@H](C)NC(=O)CNC(=O)[C@@H](NC=O)C(C)C)C(C)C)C(C)C)C(=O)N[C@@H](Cc1c[nH]c2ccccc12)C(=O)N[C@@H](C(=O)N[C@@H](Cc1c[nH]c2ccccc12)C(=O)N[C@@H](C(=O)N[C@@H](Cc1c[nH]c2ccccc12)C(=O)N[C@H](CC(C)C)C(=O)N[C@@H](Cc1c[nH]c2ccccc12)C(=O)NCCO)C(C)C)C(C)C [compound 11226] (For-VGA[dV]A[dL]V[dD](NHMe)W[dV]W[dV]W[dL]W-NHCH2CH2OH) | 1.04 | 76.8% | - |
| CNC(=O)C[C@@H](NC(=O)[C@@H](NC(=O)[C@@H](CC(C)C)NC(=O)[C@H](C)NC(=O)[C@@H](CC(C)C)NC(=O)[C@H](C)NC(=O)CNC(=O)[C@@H](NC=O)C(C)C)C(C)C)C(=O)N[C@@H](Cc1c[nH]c2ccccc12)C(=O)N[C@@H](C(=O)N[C@@H](Cc1c[nH]c2ccccc12)C(=O)N[C@@H](C(=O)N[C@@H](Cc1c[nH]c2ccccc12)C(=O)N[C@H](CC(C)C)C(=O)N[C@@H](Cc1c[nH]c2ccccc12)C(=O)NCCO)C(C)C)C(C)C [compound 11228] (For-VGA[dL]A[dL]V[dD](NHMe)W[dV]W[dV]W[dL]W-NHCH2CH2OH) | 1.27 | 76.4% | - |
| CC(C)C[C@@H](NC(=O)[C@H](Cc1c[nH]c2ccccc12)NC(=O)[C@H](NC(=O)[C@H](Cc1c[nH]c2ccccc12)NC(=O)[C@@H](CC(C)C)NC(=O)[C@@H](NC(=O)[C@H](NC(=O)[C@H](C)NC(=O)[C@H](NC(=O)[C@H](C)NC(=O)CNC(=O)[C@@H](NC=O)C(C)C)[C@H](C)O)C(C)C)C(C)C)C(C)C)C(=O)N[C@@H](Cc1c[nH]c2ccccc12)C(=O)N[C@@H](C(=O)N[C@@H](Cc1c[nH]c2ccccc12)C(=O)NCCO)C(C)C [compound 11238] (For-VGA[dT]A[dV]V[dL]W[dV]W[dL]W[dV]W-NHCH2CH2OH) | 1.03 | 64.7% | - |
| CC(C)C[C@@H](NC(=O)[C@H](C)NC(=O)[C@H](NC(=O)[C@H](C)NC(=O)CNC(=O)[C@@H](NC=O)C(C)C)C(C)C)C(=O)N[C@H](C(=O)N[C@H](CC(C)C)C(=O)N[C@@H](Cc1c[nH]c2ccccc12)C(=O)N[C@H](CC(C)C)C(=O)N[C@@H](Cc1c[nH]c2ccccc12)C(=O)N[C@@H](C(=O)N[C@@H](Cc1c[nH]c2ccccc12)C(=O)N[C@@H](C(=O)N[C@@H](Cc1c[nH]c2ccccc12)C(=O)NCCO)C(C)C)C(C)C)C(C)C [compound 11280] (For-VGA[dV]A[dL]V[dL]W[dL]W[dV]W[dV]W-NHCH2CH2OH) | 1.04 | 9.9% | - |
| CC(C)C[C@@H](NC(=O)[C@H](C)NC(=O)CNC(=O)[C@@H](NC=O)C(C)C)C(=O)N[C@@H](C)C(=O)N[C@H](CC(C)C)C(=O)N[C@H](C(=O)N[C@@H](C(=O)N[C@@H](Cc1c[nH]c2ccccc12)C(=O)N[C@H](CC(C)C)C(=O)N[C@@H](Cc1c[nH]c2ccccc12)C(=O)N[C@H](CC(C)C)C(=O)N[C@@H](Cc1c[nH]c2ccccc12)C(=O)N[C@@H](C(=O)N[C@@H](Cc1c[nH]c2ccccc12)C(=O)NCCO)C(C)C)[C@H](C)O)C(C)C [compound 11295] (For-VGA[dL]A[dL]V[dT]W[dL]W[dL]W[dV]W-NHCH2CH2OH) | 1.12 | 78.1% | - |
| CC(C)C[C@@H](NC(=O)[C@H](C)NC(=O)CNC(=O)[C@@H](NC=O)C(C)C)C(=O)N[C@@H](C)C(=O)N[C@@H](C(=O)N[C@H](C(=O)N[C@H](CC(C)C)C(=O)N[C@@H](Cc1c[nH]c2ccccc12)C(=O)N[C@H](CC(C)C)C(=O)N[C@@H](Cc1c[nH]c2ccccc12)C(=O)N[C@H](CC(C)C)C(=O)N[C@@H](Cc1c[nH]c2ccccc12)C(=O)N[C@@H](C(=O)N[C@@H](Cc1c[nH]c2ccccc12)C(=O)NCCO)C(C)C)C(C)C)[C@H](C)O [compound 11302] (For-VGA[dL]A[dT]V[dL]W[dL]W[dL]W[dV]W-NHCH2CH2OH) | 1.05 | 49.1% | - |
| CC(C)C[C@@H](NC(=O)[C@H](Cc1c[nH]c2ccccc12)NC(=O)[C@@H](CC(C)C)NC(=O)[C@@H](NC(=O)[C@H](NC(=O)[C@H](C)NC(=O)[C@H](NC(=O)[C@H](C)NC(=O)CNC(=O)[C@@H](NC=O)C(C)C)[C@H](C)O)C(C)C)C(C)C)C(=O)N[C@@H](Cc1c[nH]c2ccccc12)C(=O)N[C@H](CC(C)C)C(=O)N[C@@H](Cc1c[nH]c2ccccc12)C(=O)N[C@@H](C(=O)N[C@@H](Cc1c[nH]c2ccccc12)C(=O)NCCO)C(C)C [compound 11317] (For-VGA[dT]A[dV]V[dL]W[dL]W[dL]W[dV]W-NHCH2CH2OH) | 1.02 | 42.1% | - |
| CC(C)C[C@@H](NC(=O)[C@H](C)NC(=O)CNC(=O)[C@@H](NC=O)C(C)C)C(=O)N[C@@H](C)C(=O)N[C@H](CC(C)C)C(=O)N[C@H](C(=O)N[C@H](CC(C)C)C(=O)N[C@@H](Cc1c[nH]c2ccccc12)C(=O)N[C@@H](C(=O)N[C@@H](Cc1c[nH]c2ccccc12)C(=O)N[C@@H](C(=O)N[C@@H](Cc1c[nH]c2ccccc12)C(=O)N[C@@H](C(=O)N[C@@H](Cc1c[nH]c2ccccc12)C(=O)NCCO)C(C)C)C(C)C)C(C)C)C(C)C [compound 11323] (For-VGA[dL]A[dL]V[dL]W[dV]W[dV]W[dV]W-NHCH2CH2OH) | 1.02 | 5.2% | - |
